Data on 5 compounds can be found in BindingDB's records for PubMed 1646322 (Mayo Clinic, 1991).

Each structure is given as a SMILES string. pKi: −log10 of the molar value.

The target of experiment [1] is T1, Muscarinic acetylcholine receptor M4 (Rattus norvegicus, UniProt P08485).
T1 sequence (P08485 whole entry): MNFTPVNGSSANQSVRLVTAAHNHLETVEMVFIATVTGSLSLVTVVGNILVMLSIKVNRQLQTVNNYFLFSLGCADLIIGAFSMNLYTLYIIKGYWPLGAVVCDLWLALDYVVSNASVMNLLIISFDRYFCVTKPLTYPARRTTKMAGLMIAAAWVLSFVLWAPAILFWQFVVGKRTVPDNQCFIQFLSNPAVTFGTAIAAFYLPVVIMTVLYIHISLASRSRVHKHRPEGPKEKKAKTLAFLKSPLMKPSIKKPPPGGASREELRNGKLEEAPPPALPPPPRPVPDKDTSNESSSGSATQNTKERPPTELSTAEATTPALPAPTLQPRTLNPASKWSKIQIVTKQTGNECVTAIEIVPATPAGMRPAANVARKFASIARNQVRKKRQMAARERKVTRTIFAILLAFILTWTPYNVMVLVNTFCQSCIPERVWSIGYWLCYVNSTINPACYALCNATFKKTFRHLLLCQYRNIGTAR

For experiment [2], the target named is T2, Muscarinic acetylcholine receptor M1 (Rattus norvegicus, UniProt P08482).
T2 sequence (P08482 whole entry): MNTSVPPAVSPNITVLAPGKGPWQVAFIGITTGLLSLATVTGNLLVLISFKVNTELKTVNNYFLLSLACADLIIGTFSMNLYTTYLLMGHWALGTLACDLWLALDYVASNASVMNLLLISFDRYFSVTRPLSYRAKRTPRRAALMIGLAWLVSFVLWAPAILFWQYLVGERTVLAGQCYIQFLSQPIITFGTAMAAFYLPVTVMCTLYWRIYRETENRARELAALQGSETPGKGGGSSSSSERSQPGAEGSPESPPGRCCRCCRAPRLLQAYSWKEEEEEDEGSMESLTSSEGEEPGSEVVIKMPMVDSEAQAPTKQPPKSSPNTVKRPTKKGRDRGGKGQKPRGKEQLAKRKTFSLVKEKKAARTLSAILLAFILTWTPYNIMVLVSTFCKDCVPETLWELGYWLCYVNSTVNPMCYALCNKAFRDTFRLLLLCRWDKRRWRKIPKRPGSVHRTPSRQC

Regarding `C[N+]1(C)CCC(OC(=O)C(c2ccccc2)c2ccccc2)CC1`, the negative-log Ki (pKi) in experiment [1] was 8.85.
On to `CCN(CC)CC1CCCCN1CC(=O)N1c2ccccc2C(=O)Nc2cccnc21` (stereo not drawn) [(AF-DX 116) 11-[2-(2-Diethylaminomethyl-piperidin-1-yl)-acetyl]-5,11-dihydro-benzo[e]pyrido[3,2-b][1,4]diazepin-6-one], for which the values for the pKi in experiment [2] and in experiment [1] were 5.92 and 6.21, respectively.
The matching figures for `O[Si](CCCN1CCCCC1)(c1ccccc1)C1CCCCC1` (stereo not drawn) [HHSiD]: 7.22 and 7.33.
Consider `COc1ccccc1CNCCCCCCNCCCCCCCCNCCCCCCNCc1ccccc1OC` [METHOCTRAMINE], for which the pKi in experiment [1] was 6.39.
Regarding `CCN(CCCC(=O)C1CCCCC1)C(C)Cc1ccc(OC)cc1` (stereo not drawn) [NSC_42470], the figures for the pKi in experiment [2] and in experiment [1] were 8.23 and 8.11, respectively.

A word on the pKi: it is the Ki on a negative log10 scale, so that one unit is a factor of ten. A low value points to a large Ki.
